{
  "source": "paper PMC2824119",
  "about": "(Cancer Chemotherapy and Pharmacology, 2010)",
  "key": {"CYP2E1": {"target": "CYP2E1 (Homo sapiens, UniProt P05181)", "sequence (P05181 whole entry)": "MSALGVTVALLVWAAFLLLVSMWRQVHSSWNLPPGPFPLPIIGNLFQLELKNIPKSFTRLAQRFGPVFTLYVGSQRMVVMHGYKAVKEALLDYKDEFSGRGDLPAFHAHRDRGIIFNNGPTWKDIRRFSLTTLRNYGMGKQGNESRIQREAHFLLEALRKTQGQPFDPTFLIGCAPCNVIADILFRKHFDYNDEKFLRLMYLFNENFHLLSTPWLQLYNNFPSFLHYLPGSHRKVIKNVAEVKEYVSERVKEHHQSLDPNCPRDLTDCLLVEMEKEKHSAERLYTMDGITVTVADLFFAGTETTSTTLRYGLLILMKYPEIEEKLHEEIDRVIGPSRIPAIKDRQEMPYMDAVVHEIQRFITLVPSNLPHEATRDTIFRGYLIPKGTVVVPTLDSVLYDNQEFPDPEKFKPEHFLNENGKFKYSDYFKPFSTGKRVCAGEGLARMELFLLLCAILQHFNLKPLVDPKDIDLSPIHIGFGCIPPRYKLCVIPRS", "assay": "CYP2E1 inhibition in human liver microsomes", "assay_type": "in vitro ADME"}, "CYP3A4/5": {"tested_on": "CYP3A4/5", "settings": "hepatocytes"}, "CYP1A2 [1]": {"tested_on": "CYP1A2"}, "CYP1A2 [2]": {"target": "T1, CYP1A2 (Homo sapiens, UniProt P05177)", "T1 sequence (P05177 1-516)": "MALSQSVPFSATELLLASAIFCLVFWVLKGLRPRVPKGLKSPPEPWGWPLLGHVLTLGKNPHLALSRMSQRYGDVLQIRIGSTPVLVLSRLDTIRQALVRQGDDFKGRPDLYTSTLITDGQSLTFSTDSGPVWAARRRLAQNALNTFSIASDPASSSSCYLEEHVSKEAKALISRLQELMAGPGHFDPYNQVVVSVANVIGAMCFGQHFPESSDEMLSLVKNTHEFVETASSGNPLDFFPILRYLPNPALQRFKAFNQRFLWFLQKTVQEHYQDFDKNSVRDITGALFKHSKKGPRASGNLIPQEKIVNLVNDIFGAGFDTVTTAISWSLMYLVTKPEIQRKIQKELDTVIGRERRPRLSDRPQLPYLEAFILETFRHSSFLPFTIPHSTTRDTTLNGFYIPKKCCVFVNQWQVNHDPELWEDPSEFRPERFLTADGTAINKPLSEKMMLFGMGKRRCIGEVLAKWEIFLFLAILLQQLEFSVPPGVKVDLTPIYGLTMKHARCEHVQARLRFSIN", "settings": "azacitidine at 70 μM or lower concentrations"}},
  "data": [
    {"molecule": "Nc1ncn([C@@H]2O[C@H](CO)[C@@H](O)[C@H]2O)c(=O)n1", "note": "[Azacitidine]", "values": [
      {"measurement": "Inhibition of CYP2E1", "setting": "CYP2E1; azacitidine at 70 μM or lower concentrations", "result": "no inhibition"},
      {"measurement": "Percent inhibition", "setting": "CYP2E1; azacitidine at 100 μM, chlorzoxazone 40 μM, HLM 0.8 mg/mL", "result": "< 30", "unit": "%"},
      {"measurement": "Induction of CYP3A4/5 activity", "setting": "CYP3A4/5", "result": "did not induce"},
      {"measurement": "Decrease of CYP3A4/5-catalyzed testosterone 6β-hydroxylation", "setting": "CYP3A4/5; human", "result": 78, "unit": "%"},
      {"measurement": "Decrease of CYP1A2-mediated 7-ethoxyresorufin O-dealkylation", "setting": "CYP1A2 [1]; azacitidine 100 μM, not statistically significant", "result": 29, "unit": "%"},
      {"measurement": "Induction of CYP1A2 activity", "setting": "CYP1A2 [1]; clinically relevant concentrations, once daily for three consecutive days", "result": "did not induce"},
      {"measurement": "Inhibition of CYP1A2", "setting": "CYP1A2 [2]", "result": "no inhibition"}
    ]}
  ]
}
